Data on 15 molecules can be found in patent publication US20220183972A1, “NANOEMULSION HYDROPHOBIC […]” (VERTOSA INC., priority 2018, published 2022).

One data set is described as follows: Emulsion droplet size by DLS, Polyglyceryl-4 main surfactants. Format: physicochemical. Particulars: 1 g cannabinoid oil, 0.7 g olive oil, 2.5 g Polyglyceryl-4 surfactant, 1.5 g sunflower lecithin, 40 g water, 80% amplitude.
As to Polyglyceryl-4 Caprate, the “final emulsion droplet average size” value is listed as 365 nm.
Take Polyglyceryl-4 Isostearate: the “final emulsion droplet average size” value amounted to 371 nm.
As to Polyglyceryl-4 Oleate, the “final emulsion droplet average size” value worked out at 506 nm.

Assay in the next data set: not given
Particulars: Span surfactants, Example 10; cited from earlier work.
Span 40: the HLB was 6.7.
As for Span 60, the HLB is on record as 4.7.
With Span 80, the HLB is on record as 4.3.
In the case of Span 120, the HLB is listed as 4.7.

The same data set, now with this note: Table 1; cited from earlier work.
Polyglyceryl-6 Stearate: the HLB was 9.
On to Polyglyceryl-6 oleate, for which the HLB was 9.
Consider Tween 81, for which the HLB is given as 10.
In the case of Vitamin E TPGS 200, the HLB is listed as 6.3.
For the molecule Vitamin E TPGS 300, the HLB is 8.2.
Vitamin E TPGS 2000: the HLB is reported as 16.5.
Consider Vitamin E TPGS 4000, for which the HLB is given as 18.1.

Assay in the next data set: not given
Particulars: upon eating cannabis; cited from earlier work.
With `CCCCCc1cc(O)c2c(c1)OC(C)(C)[C@@H]1CCC(C)=C[C@@H]21` [THC, Tetrahydrocannabinol], the THC absorbed is 8-15%.

Staying with this data set, now noted: upon smoking cannabis; cited from earlier work.
As to `CCCCCc1cc(O)c2c(c1)OC(C)(C)[C@@H]1CCC(C)=C[C@@H]21` [THC, Tetrahydrocannabinol], the “THC absorbed by lung” value was 2-45%.
